According to paper PMC10482825 (Scientific Reports, 2023):
Values after ≈ are worked out from the molar mass of the structure shown. Where a SMILES comes first, the peptide text is derived from it.

Legend:
B. subtilis [1] = type: cell-based, Bacillus subtilis (ATCC, 11774); conditions: micro-broth dilution, 3 h peptide treatment then MHB 18 h, 37 °C, OD 600 nm
Text: (§1) The microbial strains used in this study were Bacillus subtilis (ATCC, 11774), Candida albicans (TIMM, 1768), Enterococcus faecalis (ATCC, 33186), Escherichia coli (ATCC, 11775), Klebsiella pneumoniae (ATCC, 13883), Methicillin-resistant Staphylococcus aureus (ATCC, BAA-41), Pseudomonas aeruginosa (ATCC, 10145), Salmonella enterica (ATCC, 14028), Serratia marcescens (ATCC, 13880), Staphylococcus aureus (ATCC, 25923) and Vibrio parahaemolyticus (ATCC, 17802). All microbial strains were cultivated overnight at 37 °C and 200 rpm, then subcultured and incubated for 3 h under the same incubation conditions to obtain the mid-logarithmic growth phase. The cultivated cells were washed twice with 10 mM Tris–HCl containing 5 mM D-glucose at pH 7.4 and suspended in the same buffer to be used in different assays, as previously described.
(§2) As a conclusive quantitative assessment, broth microtiter assay was used to determine the MIC values of each cryptide against B. subtilis, MRSA, S. enterica, P. aeruginosa, V. parahaemolyticus and C. albicans by following the guidelines of the Clinical and Laboratory Standards Institute (CLSI)[67], with slight modifications. Eighty microliters of 5 × 10^4 CFU/ml of each pathogen were dispensed into a 96-well polypropylene microtiter plate. The wells were then treated with 20 µl of serially diluted cryptides for 3 h at 37 °C. Gentamicin was used for positive controls at 0.2 mg/ml while an equivalent volume of acidified water was used for negative controls. The plates were then topped up with a final concentration of 1 × Mueller Hinton Broth (MHB) and incubated for 18 h under the same incubation conditions. MIC was detected as the lowest concentration of each cryptide that prevents the optically detectable microbial growth at OD = 600 nm.

MRSA [2] = type: cell-based, Methicillin-resistant Staphylococcus aureus (ATCC, BAA-41); conditions: micro-broth dilution, 3 h peptide treatment then MHB 18 h, 37 °C, OD 600 nm
Text: as §1, §2

S. enterica [3] = type: cell-based, Salmonella enterica (ATCC, 14028); conditions: micro-broth dilution, 3 h peptide treatment then MHB 18 h, 37 °C, OD 600 nm
Text: as §1, §2

P. aeruginosa [4] = type: cell-based, Pseudomonas aeruginosa (ATCC, 10145); conditions: micro-broth dilution, 3 h peptide treatment then MHB 18 h, 37 °C, OD 600 nm
Text: as §1, §2

C. albicans [5] = type: cell-based, Candida albicans (TIMM, 1768); conditions: micro-broth dilution, 3 h peptide treatment then MHB 18 h, 37 °C, OD 600 nm
Text: as §1, §2

[6] = test system: the different tested pathogens; type: cell-based; conditions: span over tested pathogens, undetected values disregarded
Text: as §1, §2

[7] = test system: S. enterica mature biofilm; assay: Antibiofilm microtiter plate assay (mature biofilm, crystal violet); type: cell-based, Salmonella enterica (ATCC, 14028); conditions: tested 12.5-200 µM
Method: The antibiofilm activities of the selected cryptides against S. enterica and MRSA mature biofilms were examined by microtiter plate assay as previously described, with slight modification. During the mid-logarithmic phase, S. enterica and MRSA were suspended at the density of 1.7 × 10^8 CFU/ml in MHB. Then 100 µl of each bacterial suspension was dispensed into a vinyl 96 U-shaped-well plate and incubated overnight at 37 °C. The mature biofilms were washed with 10 mM Tris–HCl containing 5 mM D-glucose at pH 7.4 and treated for 8 h with 100 µl of two-fold serially diluted cryptides, under the same incubation conditions. A sterile MHB medium was used as the positive control while an equivalent volume of acidified water was used to treat the negative controls. The treated biofilms were washed twice with the same washing buffer and stained with 0.1% crystal violet for 15 min followed by rinsing with sterile distilled water twice and then dried for 30 min at 37 °C. The stain was dissolved with 33% acetic acid and transferred to an optically clear 96-well flat bottom plate which was then measured at 600 nm.
Table S.4 Antibiofilm activities of the selected Cryptides against S. enterica and MRSA. Microbial cells were suspended at 1.7 X 10^8 CFU/ml density, during the mid-logarithmic phase in MHB. Then, 96 U-shaped -well plates were inoculated with 100 µl of microbial suspension and incubated for 48 h at 37 °C. The formed biofilms were washed with 10 mM Tris-HCl and treated with 100 µl of different concentrations of each peptide for 24 h. The treated biomasses were washed and fixed with methanol for 15 min at -20 °C before staining with 0.1 % crystal violet. The stained biofilms were dissolved in 100 µl of 33 % acetic acid and the quantities of crystal violet stains were determined by measuring absorbance at 600 nm as an indicator of the remaining biomass after treatment. Untreated cells were used as negative control [indicating 100 % biofilm integrity] while the sterile medium was used as a positive control [indicating 0 % biofilm integrity].
S. enterica MRSA S. enterica MRSA S. enterica MRSA S. enterica MRSA S. enterica MRSA

Caco-2 = type: cell-based, human; conditions: 24 h, serum-free medium, MTT, 37 °C, 5% CO2; mean ± SD
Method: (§3) The used mammalian cell lines in our study were colorectal adenocarcinoma (Caco2, ATCC-HTB-37), colorectal carcinoma (HCT 116, ATCC-CCL-247), lung carcinoma (A549, ATCC- CCL-185), cervical cancer cells (HeLa, ATCC-CCL-2), neuroblastoma (SH-SY5Y, ATCC- CRL-2266), rhabdomyosarcoma (RD, ATCC- CCL-136) and human embryonic kidney cells (HEK 293, ATCC- CRL-1573). All the cells were maintained into Dulbecco’s Modified Eagle’s Medium (DMEM) supplemented with 10% heat-inactivated fetal bovine serum, 2 mM L-Glutamine, 100 U/ml penicillin–streptomycin (Pen/Strep) at 37 °C in 5% CO2 humidified incubator.
(§4) First, the cytotoxic effect of 24 h serum deprivation on all the selected cell lines was evaluated by MTT assay, following standard protocols. Briefly, cells were seeded and maintained at 37 °C and 5% CO2 in 24-well plates until they reached 75–80% confluency (zero time). Following washing twice with 1X PBS, cells were incubated in a serum-free medium for 24 h, under the same incubation conditions. The cell viability percentages were calculated and compared to zero time as 100% viability to nullify any possible effects of serum deprivation. Thence, the cell viability percentage of each cell line in response to 24 h treatment with different concentrations of each cryptide in serum-free medium was calculated. […] All the measured cell viability percentages were normalised against the corresponding negative controls.

HeLa = type: cell-based, human; conditions: 24 h, serum-free medium, MTT, 37 °C, 5% CO2; mean ± SD
Method: as §3, §4

[8] = type: cell-based; conditions: 24 h, serum-free medium, MTT, 37 °C, 5% CO2; mean ± SD; read-out: IC50 (µM) A459
Method: as §3, §4

RD = type: cell-based; conditions: 24 h, serum-free medium, MTT, 37 °C, 5% CO2; mean ± SD
Method: as §3, §4

SH-SY5Y = type: cell-based; conditions: 24 h, serum-free medium, MTT, 37 °C, 5% CO2; mean ± SD
Method: as §3, §4

HEK-293 = assay: MTT cytotoxicity on normal cells; type: cell-based, human; conditions: 25 µM (highest tested concentration), 24 h, serum-free medium
Method: as §3, §4

B. subtilis [9] = type: cell-based, Bacillus subtilis (ATCC, 11774); conditions: 20 µl of wells without growth on agar, 18 h, 37 °C
MRSA [10] = type: cell-based, Methicillin-resistant Staphylococcus aureus (ATCC, BAA-41); conditions: 20 µl of wells without growth on agar, 18 h, 37 °C
S. enterica [11] = type: cell-based, Salmonella enterica (ATCC, 14028); conditions: 20 µl of wells without growth on agar, 18 h, 37 °C
P. aeruginosa [12] = type: cell-based, Pseudomonas aeruginosa (ATCC, 10145); conditions: 20 µl of wells without growth on agar, 18 h, 37 °C
C. albicans [13] = type: cell-based, Candida albicans (TIMM, 1768); conditions: 20 µl of wells without growth on Sabouraud 4% Dextrose Agar, 18 h, 37 °C
HCT 116 = type: cell-based, human; conditions: 24 h, serum-free medium, MTT, 37 °C, 5% CO2; mean ± SD
Method: as §3, §4

human RBCs = assay: Hemolytic assay; type: cell-based; conditions: 2% RBCs in PBS, 2 h, 37 °C, supernatant at 450 nm, 0.1% TritonX-100 = maximum; highest tested concentration 100 µM
Method: All methods were carried out in accordance with the Declaration of Helsinki, and the Research Ethics Committee approved all experimental protocols at Sunway University (approval no. PGSUREC2020/005). A human blood sample was collected from a healthy person for this assay upon obtaining informed consent. The fresh blood sample was centrifuged at 3700 g for 5 min at RT. The supernatant (serum) was removed and red blood cells (RBCs) were washed three times with 1X PBS and diluted to a final concentration of 2% (PBS—137 mM NaCl, 2.7 mM KCl, 10 mM Na2HPO4, 1.76 mM KH2PO4). Cells were stored at 4 °C, and used within 5 h.
The hemolytic activities of the identified cryptides were evaluated as previously described. The prepared RBCs were treated with different peptide concentrations for 2 h at 37 °C. The treated RBCs were centrifuged, under the same centrifugation conditions, and the supernatants were transferred to a 96-well plate and measured at 450 nm.

| Compound | MIC (µM) B. subtilis (B. subtilis [1]) | MIC (µM) MRSA (MRSA [2]) | MIC (µM) S. enterica (S. enterica [3]) | MIC (µM) P. aeruginosa (P. aeruginosa [4]) | MIC (µM) C. albicans (C. albicans [5]) | Minimal biofilm eradication concentration (MBEC) S. enterica [7] | IC50 (Caco-2) | IC50 (HeLa) | IC50 [8] | IC50 (RD) | IC50 (SH-SY5Y) | Cell death of HEK-293 (HEK-293) | MBC (µM) B. subtilis (B. subtilis [9]) | MBC (µM) MRSA (MRSA [10]) | MBC (µM) S. enterica (S. enterica [11]) | MBC (µM) P. aeruginosa (P. aeruginosa [12]) | MFC (µM) C. albicans (C. albicans [13]) | other results |
| --- | --- | --- | --- | --- | --- | --- | --- | --- | --- | --- | --- | --- | --- | --- | --- | --- | --- | --- |
| CC(C)[C@H](NC(=O)[C@H](CO)NC(=O)[C@H](Cc1ccccc1)NC(=O)[C@H](CC(N)=O)NC(=O)[C@H](CS)NC(=O)[C@H](Cc1ccc(O)cc1)NC(=O)[C@H](Cc1c[nH]cn1)NC(=O)CN)C(=O)N[C@H](C(=O)N1CCC[C@H]1C(=O)N[C@@H](CCCCN)C(=O)N[C@@H](Cc1ccccc1)C(=O)N[C@@H](CCCCN)C(=O)N[C@@H](CCCNC(=N)N)C(=O)N[C@@H](Cc1c[nH]c2ccccc12)C(=O)O)[C@@H](C)O [AD8] (H-GHYCNFSVTPKFKRW-OH) | 0.78 µM (≈ 1.46 µg/mL) | 3.12 µM (≈ 5.83 µg/mL) | 0.78 µM (≈ 1.46 µg/mL) | 25 µM (≈ 46.8 µg/mL) | 6.25 µM (≈ 11.7 µg/mL) | 200 µM | 4.4 ± 0.5 µM | 42.6 ± 0.3 µM | 7.3 ± 0.5 µM | 27.2 ± 0.4 µM | 23.3 ± 0.7 µM | less than 10% | 0.78 µM (≈ 1.46 µg/mL) | 12.5 µM (≈ 23.4 µg/mL) | 0.78 µM (≈ 1.46 µg/mL) | 50 µM (≈ 93.5 µg/mL) | 6.25 µM (≈ 11.7 µg/mL) | MBC values, range against the different tested pathogens [6]: 0.78 ~ 50 µM; MIC values, range against the different tested pathogens [6]: 0.78 ~ 25 µM |
| CC(C)C[C@H](NC(=O)[C@H](C)NC(=O)[C@H](Cc1ccccc1)NC(=O)[C@@H](N)Cc1ccccc1)C(=O)N[C@@H](CCC(N)=O)C(=O)N[C@@H](CS)C(=O)N[C@@H](C)C(=O)N[C@@H](C)C(=O)N[C@@H](CCCCN)C(=O)N[C@H](C(=O)N[C@@H](CCCNC(=N)N)C(=O)N[C@H](C(=O)N[C@@H](CCCNC(=N)N)C(=O)N[C@@H](CCCNC(=N)N)C(=O)N[C@H](C(=O)O)C(C)C)[C@@H](C)O)[C@@H](C)O [AD12] (H-FFALQCAAKTRTRRV-OH) | 0.78 µM (≈ 1.38 µg/mL) | 6.25 µM (≈ 11.1 µg/mL) | 0.78 µM (≈ 1.38 µg/mL) | 12.5 µM (≈ 22.1 µg/mL) | 12.5 µM (≈ 22.1 µg/mL) | 200 µM | 4.35 µM | 8.5 ± 0.5 µM | 9.4 ± 1 µM | 159 µM |  | less than 10% | 0.78 µM (≈ 1.38 µg/mL) | 25 µM (≈ 44.2 µg/mL) | 0.78 µM (≈ 1.38 µg/mL) | 25 µM (≈ 44.2 µg/mL) | 12.5 µM (≈ 22.1 µg/mL) |  |
| N.N.[Cl][Pt][Cl] [Cisplatin, reference compound] |  |  |  |  |  |  |  | 63.6 ± 0.4 µM | 15.3 ± 0.6 µM | 74 ± 1.2 µM | 54.4 ± 0.8 µM |  |  |  |  |  |  | IC50 (µM) HCT 116 (HCT 116): resistant; Hemolysis of human RBCs at 100 µM (human RBCs): less than 10% |
